“And” between values parts separate entries of the source, which are not always exact repeats. Identical values can stand only once.
System: 885724-159-R-J1-PDC complex spheroid viability
Assay: Anticancer human tumor 885724-159-R-J1-PDC patient-derived pancreatic adenocarcinoma cell line growth inhibition [GQUAD]
Conditions: for viability, T/C: stronger effect = lower value; active = viability on the fitted dose curve at most 10% of control; inactive = the rest
Source text: DNA G-quadruplex Stabilizer Agents in Combinations in Complex Spheroids
A high-throughput screen of multi-cell type tumor spheroids was designed to identify active combinations of DNA G-quadruplex stabilizer agents and targeted small molecules. Complex spheroids include a stromal component modeled by human endothelial cells (HUVEC) and fibroblasts modeled by human mesenchymal stem cells (MSCs). The concentration ranges selected for each drug and investigational agent were based upon clinically achievable concentrations if the clinical Cmax of the agent was known.
Compounds. The drugs and investigational agents: pidnarulex (CX-5461; NSC782164), APTO-253 (NSC789042), BRACO-19 (NSC847499), peposertib (NSC802822), ceralasertib (NSC780249), elimusertib (NSC800525), camonsertib (NSC841442), AZD-1390 (NSC803789), olaparib (NSC753686), talazoparib (NSC767125), ART-558 (NSC835418), sotorasib (NSC818433), MRTX-1133 (NSC836407), SN-38 (NSC673596), topotecan (NSC609699), etoposide (NSC141540), doxorubicin (NSC123127), gemcitabine (NSC613327), 5-fluorouracil (NSC19893), paclitaxel (NSC125973), vemurafenib (NSC761431), panobinostat (NSC761190), R-306465 (JNJ-16241199; NSC773264), adavosertib (NSC754352), TP-3654 (NSC805149), carboplatin (NSC241240), KSQ-4279 (NSC840948), and staurosporine (NSC755774) were obtained from the National Cancer Institute (NCI) Developmental Therapeutics Program Chemical Repository (34). The FDA-approved anticancer drug set is available from the NCI Developmental Therapeutics Program. […] The stock solutions were prepared in dimethyl sulfoxide (DMSO, Sigma-Aldrich, St. Louis, MO, cat. D2650) at 800-fold the tested concentration and stored at -70 degrees C prior to their use. All drugs and investigational agents were tested over a range starting from a high concentration at or near the clinical Cmax and decreasing in half-log increments. If the clinical Cmax for an agent had not been determined, the highest concentration tested was 10 microM.
2.3 Cell Culture. All cells were maintained in an incubator at 37 degrees C and 5% CO2 with 95% humidity. The PDC lines were cultured according to standard operating procedures established by the NCI PDMR. All PDCs were thawed and cultured in Matrigel-coated flasks prepared with a working solution of 1X Ham's F-12 nutrient mix, without supplementation (Invitrogen, cat. 11765054), 100 U/mL penicillin-streptomycin (Invitrogen, cat. 15140122), and 2.5% Matrigel (Corning Inc., cat. 354248) for the first three passages. The 857933-349-R-J2-PDC line was cultured in 6C/Colon 1B media, which includes advanced DMEM/F-12 (Thermo Fisher Scientific, cat. 12634028), 10 mM HEPES (Thermo Fisher Scientific, cat. 15630080), 1X GlutaMAX supplement (Thermo Fisher Scientific, cat. 35050061), 0.1 mg/mL primocin (InvivoGen, cat. ant-pm-2), 10% defined fetal bovine serum, heat inactivated (HyClone Laboratories Inc., cat. SH30070.03HI), 50% L-WRN conditioned media (ATCC, cat. CRL-3276), 1.25 mM N-Acetyl-L-cysteine (Sigma-Aldrich, cat. A9165), 10 mM nicotinamide (Sigma-Aldrich, cat. N0636), 1X B-27 supplement (Thermo Fisher Scientific, cat. 17504044), 1X N-2 supplement (Thermo Fisher Scientific, cat. 17502048), 10 microM Y-27632 dihydrochloride (Tocris Bioscience, cat. 1254), and 50 ng/mL human EGF recombinant protein (Thermo Fisher Scientific, cat. PHG0311). The 485176-168-R4-J1-PDC line was cultured in Panc media, which includes all 6C/Colon 1B media components plus 100 ng/mL human FGF-10 (Thermo Fisher Scientific, cat. 100-26), 500 nM SB-431542 (Selleckchem, cat. S1067), and gastrin (Tocris, cat. 3006).
[…]
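Note: spheroids exposed to agents for seven days before readout.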
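Throughout, for viability, T/C: percent of vehicle control viability where 100% = DMSO wells.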

CC[C@@]1(O)C(=O)OCc2c1cc1n(c2=O)Cc2cc3c(CN(C)C)c(O)ccc3nc2-1 + CN(C)c1ccc(Nc2c3ccc(NC(=O)CCN4CCCC4)cc3nc3cc(NC(=O)CCN4CCCC4)ccc23)cc1
inactive: viability, T/C (second compound 0.0316 µM, first compound 0.000999 µM) 100% | viability, T/C (second compound 0.0316 µM, first compound 0.00316 µM) 93.2% | viability, T/C (second compound 0.0316 µM, first compound 0.00999 µM) 97.2% | viability, T/C (second compound 0.0316 µM, first compound 0.0316 µM) 93.6% | viability, T/C (second compound 0.0316 µM, first compound 0.0999 µM) 76.7% | viability, T/C (second compound 0.0316 µM, first compound 0.316 µM) 67.7% | viability, T/C (second compound 0.1 µM, first compound 0.000999 µM) 95.9% | viability, T/C (second compound 0.1 µM, first compound 0.00316 µM) 98.6% | viability, T/C (second compound 0.1 µM, first compound 0.00999 µM) 100% | viability, T/C (second compound 0.1 µM, first compound 0.0316 µM) 84.2% | viability, T/C (second compound 0.1 µM, first compound 0.0999 µM) 78% | viability, T/C (second compound 0.1 µM, first compound 0.316 µM) 67.2% | viability, T/C (second compound 0.316 µM, first compound 0.000999 µM) 78.5% | viability, T/C (second compound 0.316 µM, first compound 0.00316 µM) 86.1% | viability, T/C (second compound 0.316 µM, first compound 0.00999 µM) 83.2% | viability, T/C (second compound 0.316 µM, first compound 0.0316 µM) 82.1% | viability, T/C (second compound 0.316 µM, first compound 0.0999 µM) 89.6% | viability, T/C (second compound 0.316 µM, first compound 0.316 µM) 63.9% | viability, T/C (second compound 1 µM, first compound 0.000999 µM) 76.4% | viability, T/C (second compound 1 µM, first compound 0.00316 µM) 82.3% | viability, T/C (second compound 1 µM, first compound 0.00999 µM) 76.9% | viability, T/C (second compound 1 µM, first compound 0.0316 µM) 65.4% | viability, T/C (second compound 1 µM, first compound 0.0999 µM) 87.2% | viability, T/C (second compound 1 µM, first compound 0.316 µM) 62.4% | viability, T/C (second compound 3.16 µM, first compound 0.000999 µM) 81.3% | viability, T/C (second compound 3.16 µM, first compound 0.00316 µM) 70.5% | viability, T/C (second compound 3.16 µM, first compound 0.00999 µM) 74.8% | viability, T/C (second compound 3.16 µM, first compound 0.0316 µM) 66.3% | viability, T/C (second compound 3.16 µM, first compound 0.0999 µM) 67.9% | viability, T/C (second compound 3.16 µM, first compound 0.316 µM) 51.6% | viability, T/C (second compound 10 µM, first compound 0.000999 µM) 89.7% | viability, T/C (second compound 10 µM, first compound 0.00316 µM) 87.5% | viability, T/C (second compound 10 µM, first compound 0.00999 µM) 77.3% | viability, T/C (second compound 10 µM, first compound 0.0316 µM) 79.8% | viability, T/C (second compound 10 µM, first compound 0.0999 µM) 73.7% | viability, T/C (second compound 10 µM, first compound 0.316 µM) 52.4%
> 316 nM: IC50 (curve of first compound, second compound 0.0316 µM) | IC50 (curve of first compound, second compound 0.1 µM) | IC50 (curve of first compound, second compound 0.316 µM) | IC50 (curve of first compound, second compound 1 µM) | IC50 (curve of first compound, second compound 3.16 µM) | IC50 (curve of first compound, second compound 10 µM)

CC1COCCN1c1cc(C2(S(C)(=N)=O)CC2)nc(-c2ccnc3[nH]ccc23)n1 (stereo not drawn)
inactive: viability, T/C (compound 0.0316 µM) 105% (2×) and 97.6% | viability, T/C (compound 0.1 µM) 105% and 96.7% and 98.2% | viability, T/C (compound 0.316 µM) 105% and 94.7% and 99.6% | viability, T/C (compound 1 µM) 97.2% and 88.8% and 98.5% | viability, T/C (compound 3.16 µM) 84.7% and 82.4% and 109% | viability, T/C (compound 10 µM) 65.2% and 74.3% and 86.2%
> 10000 nM: IC50 (curve of compound)

CC(=O)O[C@H]1C(=O)[C@@]2(C)[C@H]([C@H](OC(=O)c3ccccc3)[C@]3(O)C[C@H](OC(=O)[C@H](O)[C@@H](NC(=O)c4ccccc4)c4ccccc4)C(C)=C1C3(C)C)[C@]1(OC(C)=O)CO[C@@H]1C[C@@H]2O
inactive: viability, T/C (compound 0.0316 µM) 100% and 92% and 97.8% | viability, T/C (compound 0.1 µM) 66.6% and 80.5% and 89.4% | viability, T/C (compound 0.316 µM) 82.2% and 93.6% and 90.7% | viability, T/C (compound 1 µM) 83.6% and 86.1% and 96.7% | viability, T/C (compound 3.16 µM) 89.6% and 91% and 100% | viability, T/C (compound 10 µM) 93% and 104% and 107%
> 10000 nM: IC50 (curve of compound)

CCc1c2c(nc3ccc(O)cc13)-c1cc3c(c(=O)n1C2)COC(=O)[C@]3(O)CC
110 nM and 64.3 nM and 101 nM: IC50 (curve of compound)
inactive: viability, T/C (compound 0.000999 µM) 85.3% and 91.4% and 93.3% | viability, T/C (compound 0.00316 µM) 87.5% and 81.8% and 85.2% | viability, T/C (compound 0.00999 µM) 63.2% and 62.8% and 77.4% | viability, T/C (compound 0.0316 µM) 66.7% and 67.3% and 62.1% | viability, T/C (compound 0.0999 µM) 60.3% and 45.8% and 59% | viability, T/C (compound 0.316 µM) 17.2% and 8.7% and 16.4%
